In this test the test system is HBsAg secretion, HepG2-Clone42 cells (Tet-inducible HBV-expressing cell line, HBV ayw strain). Put plainly: HBsAg assay (HBsAg ELISA of secreted HBV sAg in HepG2-Clone42 cells). The class given is cell-based. Particulars: Hepatitis B virus, read-out: HBsAg EC50. The protocol: HepG2-Clone42, a Tet-inducible HBV-expressing cell line with a stably integrated 1.3mer copy of the HBV ayw strain, was generated based on the Tet-inducible HepAD38 cell line with slight modifications. Ladner S K, et al., Antimicrobial Agents and Chemotherapy. 41(8):1715-1720 (1997). HepG2-Clone42 cells were cultured in DMEM/F-12+ Glutamax™ (Life Technologies, Carlsbad, Calif., USA), supplemented with 10% fetal bovine serum (Life Technologies), G-418 (Corning, Manassas, Va., USA) at a final concentration of 0.5 mg/mL, and 5 μg/mL Doxycycline (Sigma, St. Louis, Mo., USA) and maintained in 5% CO2 at 37° C.
HepG2-Clone42 cells were seeded into black clear-bottom 96-well plates at a concentration of 6.0×10^4 cells/well. 24 hours post-seeding, the cells were treated with 200 μl/well of media containing five-fold serial dilutions of compounds in DMSO. DMSO alone was used as the no drug control. The final DMSO concentration in all wells was 0.5%.
The HBsAg ELISA kit (Alpha Diagnostic International, San Antonio, Tex., USE, Catalog #4110) was used to determine the level (semi-quantitative) of secreted HBV sAg. The HBSAg ELISA assay was performed following the manufacturer's protocol as described.
Step 1. Pipet 100 μL each of compound or DMSO treated samples into HBsAg ELISA plates. Seal plates and incubate at room temp for 60 minutes.
Step 2. Aspirate samples and wash three times with Wash Buffer. Dispense 100 μL of antibody-HRP conjugate to each well. Incubate at room temp for 30 minutes.
Step 3. Aspirate samples and wash three times with Wash Buffer. Add 100 μL of TMB Substrate to all wells and incubate 15 minutes at room temp.
Step 4. Dispense 100 μL of Stop Solution to each well. Measure absorbance of ELISA plate at 450 nm.
Dose-response curves were generated and the EC50 value was defined as the compound concentration at which HBsAg secretion was reduced 50% compared to the DMSO control.
EC50 values were determined as follows:
Determine the percent of HBsAg secretion inhibition. Calculate the percent inhibition on of HBsAg secretion inhibition using the following equation: (XC-MB)/(MDMB) • where XC is the absorbance signal from compound-treated well; MB is average absorbance signal (background signal) for column 12 (no cells+HBsAg ELISA sample buffer) and MD is average absorbance signal from DMSO-treated wells. Then calculate EC50 values by non-linear regression using a four parameter curve logistic equation. The curve fit model employed is XLFit Dose Response One Site Model 204: y=(A+((B−A)/(1+(10^((C−x)*D))))) where A is the minimum y value, B is the maximum y value, C is the log EC50 value, and D is the slope factor. +++means<1 nm; ++means≥1 nm and ≤10 nm and +means>10 nm.
A general note: An ELISA detects its analyte on a solid surface through an enzyme-linked reagent.

A value given as a limit tells only on which side of the number the result lay.

Turning to `COCCCOc1nn2c(c1Cl)-c1cc(=O)c(C(=O)O)cn1[C@H](C(C)(C)C)C2` [Compound 1.1, (R)-6-(tert-butyl)-1-chloro-2-(3-methoxypropoxy)-10-oxo-6,10-dihydro-5H-pyrazolo[1,5-a]pyrido[2,1-c]pyrazine-9-carboxylic acid], the EC50 is under 1 nM.
The same measure for `COCCCOc1cc2n(n1)C[C@@H](C(C)(C)C)n1cc(C(=O)O)c(=O)cc1-2` [Compound 1.2, (R)-6-(tert-butyl)-2-(3-methoxypropoxy)-10-oxo-6,10-dihydro-5H-pyrazolo[1,5-a]pyrido[2,1-c]pyrazine-9-carboxylic acid]: over 10 nM.
Consider `COCCCOc1nn2c(c1Br)-c1cc(=O)c(C(=O)O)cn1[C@H](C(C)(C)C)C2` [Compound 1.3, (R)-1-bromo-6-(tert-butyl)-2-(3-methoxypropoxy)-10-oxo-6,10-dihydro-5H-pyrazolo[1,5-a]pyrido[2,1-c]pyrazine-9-carboxylic acid], for which the EC50 lay within 1 to 10 nM.
Turning to `CC(C)c1cc2n(n1)CC(C(C)(C)C)n1cc(C(=O)O)c(=O)cc1-2` (centres unmarked) [Compound 2.1, 6-(tert-butyl)-2-isopropyl-10-oxo-6,10-dihydro-5H-pyrazolo[1,5-a]pyrido[2,1-c]pyrazine-9-carboxylic acid], the half-maximal effective concentration (EC50) is over 10 nM.
The figure for `CC(C)(C)[C@@H]1Cn2nc(-c3ccccc3)c(Cl)c2-c2cc(=O)c(C(=O)O)cn21` [Compound 3.1, (R)-6-(tert-butyl)-1-chloro-10-oxo-2-phenyl-5,6-dihydro-10H-pyrazolo[1,5-a]pyrido[2,1-c]pyrazine-9-carboxylic acid] is under 1 nM; for `COc1ccccc1-c1nn2c(c1Cl)-c1cc(=O)c(C(=O)O)cn1[C@H](C(C)(C)C)C2` [Compound 3.2, (R)-6-(tert-butyl)-1-chloro-2-(2-methoxyphenyl)-10-oxo-5,6-dihydro-10H-pyrazolo[1,5-a]pyrido[2,1-c]pyrazine-9-carboxylic acid] it is over 10 nM; for `CC(C)[C@@H]1Cn2nc(-c3ccccc3)cc2-c2cc(=O)c(C(=O)O)cn21` [Compound 3.3, (R)-6-isopropyl-10-oxo-2-phenyl-5,6-dihydro-10H-pyrazolo[1,5-a]pyrido[2,1-c]pyrazine-9-carboxylic acid] it is over 10 nM.
The same measure for `CC(C)[C@@H]1Cn2nc(-c3ccccc3)c(Cl)c2-c2cc(=O)c(C(=O)O)cn21` [Compound 3.4, (R)-1-chloro-6-isopropyl-10-oxo-2-phenyl-6,10-dihydro-5H-pyrazolo[1,5-a]pyrido[2,1-c]pyrazine-9-carboxylic acid]: over 10 nM.

What is called EC50 is the midpoint of the concentration-response curve.

The values above are taken from US11234977B2, “Fused tricyclic pyrazolo-dihydropyrazinyl-pyridone compounds as antivirals” (priority 2017, dated 2022).
